Columns and labels:
[1] = test system: retinal ILM
Experimental: Human cadaveric eyes are examined in the laboratory to determine if the ICG solution stains the retinal ILM. The entire anterior segment of the eye is excised to gain access to the vitreous cavity. […] The dye is left in place on the macula for 5 minutes. […] A bent 22 g needle is used to create the initial ILM tear. Intraocular foreign body forceps are then used to grasp the elevated ILM edge. The ILM is peeled in a continuous, circular manner similar to a capsulorhexis in cataract surgery. In each case, the ILM peel removes 3 to 4 disc diameters of ILM centered approximately on the fovea. Peeled ILM and cadaver eyes are fixed in 10% buffered formalin for histopathologic preparation. Specimens are evaluated by light microscopy.
The peeled ILM and sectioned globes are submitted for histopathologic evaluation and electron microscopy. Periodic acid-Schiff (PAS) stain is used to identify the ILM.

[2] = upon mixing; as marketed; cited from earlier work
[3] = test system: ILM, the epiretinal membrane; test: ILM / epiretinal membrane peeling with indocyanine green staining in human patients; format: in vivo; settings: human patients having macular holes, epiretinal membranes, or both
From the text: The procedures of Example are followed using human patients having macular holes, epiretinal membrances, or both.

[4] = Contrast characteristics of indocyanine green colorant after exposure; format: physicochemical; settings: exposed to air, room temperature and lighted atmospheric conditions; at least 8 hours up to one month after exposure, or longer

SMILES: CC1(C)C(/C=C/C=C/C=C/C=C2\N(CCCCS(=O)(=O)O)c3ccc4ccccc4c3C2(C)C)=[N+](CCCCS(=O)(=O)[O-])c2ccc3ccccc3c21 [indocyanine green]
- staining of the underlying retina ([1]; after the ICG is removed, needle penetrated through the ILM): unstained underlying retina
- staining of the underlying ILM when posterior hyaloid remains attached ([1]; compared with globes in which the posterior cortical vitreous was removed prior to ICG injection): less staining of the underlying ILM
- effect of staining on ILM peeling ([1]; contrast between stained ILM and unstained retina): facilitates the continuation of ILM peeling
- fluorescence stability [2]: about 10 hours
- peeling of the ILM, the epiretinal membrane or both [3]: Successful peeling
- contrast characteristics after exposure [4]: satisfactory contrast characteristics

Reference: patent US20060235068A1, “OPHTHALMOLOGICAL SURGERY COLORANT AND DELIVERY SYSTEM” (priority 2000, published 2006)
